From publication PMC11869428 (Microbial Cell Factories, 2025)

Target: T1, GenP (Micromonospora echinospora, UniProt A0A1C4WLH3)
T1 sequence (A0A1C4WLH3 1-268): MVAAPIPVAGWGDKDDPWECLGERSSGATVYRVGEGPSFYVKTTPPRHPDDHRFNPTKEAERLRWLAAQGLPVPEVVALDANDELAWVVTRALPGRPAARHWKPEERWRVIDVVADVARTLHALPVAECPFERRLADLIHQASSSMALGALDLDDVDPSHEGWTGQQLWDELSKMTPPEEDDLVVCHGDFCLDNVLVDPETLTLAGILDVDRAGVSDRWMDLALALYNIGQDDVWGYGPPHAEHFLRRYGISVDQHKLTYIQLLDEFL
Assay: preparative phosphorylation, HPLC-ELSD
Assay type: biochemical
Details: ATP […], MgCl2 […], Tris […] pH […] °C, […] h

## CN[C@@H]1[C@@H](O)[C@@H](O[C@@H]2[C@@H](O)[C@H](O[C@H]3O[C@H](CN)[C@@H](O)[C@H](O)[C@H]3N)[C@@H](N)C[C@H]2N)OC[C@]1(C)O [JI-20A]
  preparative phosphorylation, HPLC-ELSD: JI-20A-P, JI-20Ba-P, and JI-20B-P were obtained through the catalysis of GenP
